Legend:
Assay type in all cases: cell-based
Raji = experiment: Cytotoxicity, CellTiter-Glo assay, Raji (Burkitt's lymphoma); details: Homo sapiens; Raji (Burkitt's lymphoma) cells; read-out: Growth inhibition GI50
Method: (§1) The cytotoxic activities of 1 and 6–8 against adherent cells and suspension cells were conducted by SRB (sulforhodamine B) assay and CellTiter-Glo assay, respectively, as described earlier. The compounds were dissolved and serially diluted in dimethyl sulfoxide. GraphPad Prism 8 (GraphPad Software Inc., San Diego, CA, USA) was used to determine GI50 values. Cancer and normal cell lines were purchased from the Japanese Cancer Research Resources Bank (JCRB) (NUGC-3, JCRB Cell Bank/Cat. # JCRB0822), the DSMZ-German Collection of Microorganisms and Cell Cultures (RPMI-8402, DSMZ/Cat # ACC 290; WSU-DLCL2, DSMZ/Cat # ACC 575), and the American Type Culture Collection (ATCC) (PC-3, ATCC/Cat. # CRL-1435; MDA-MB-231, ATCC/Cat. # HTB-26; ACHN, ATCC/Cat. # CRL-1611; NCI-H23, ATCC/Cat. # CRL-5800; HCT-15, ATCC/Cat. # CCL-225; HL-60, ATCC/Cat. # CCL-240; Raji, ATCC/Cat # CCL-86; K562, ATCC/Cat # CCL-243; NALM6, ATCC/Cat # CRL-3273; U266, ATCC/Cat # TIB-196); RPMI-1788, ATCC/Cat # TIB-156). Cells were cultured in Dulbecco’s Modified Eagles medium (ACHN, MDA-MB-231), RPMI-1640 medium (HCT-15, PC-3, NUGC-3, NCI-H23, Raji, NALM6, U266, WSU-DLCL2, RPMI-1788) or Improved Minimum Essential Medium (K562, HL-60), supplemented with fetal bovine serum and penicillin-streptomycin.

NALM6 = experiment: Cytotoxicity, CellTiter-Glo assay, NALM6 (B-ALL); details: Homo sapiens, NALM-6; NALM6 (B cell acute lymphocytic leukemia) cells; read-out: Growth inhibition GI50
Method: as §1

PC-3 = experiment: Cytotoxicity, SRB assay, PC-3 (prostate); details: Homo sapiens; PC-3 (prostate) cells; read-out: Growth inhibition GI50
Method: as §1

HL-60 = experiment: Cytotoxicity, CellTiter-Glo assay, HL-60 (AML); details: Homo sapiens; HL-60 (acute myelogenous leukemia) cells; read-out: Growth inhibition GI50
Method: as §1

NCI-H23 = experiment: Cytotoxicity, SRB assay, NCI-H23 (lung); details: Homo sapiens; NCI-H23 (lung) cells; read-out: Growth inhibition GI50
Method: as §1

K562 = experiment: Cytotoxicity, CellTiter-Glo assay, K562 (CML); details: Homo sapiens; K562 (chronic myelogenous leukemia) cells; read-out: Growth inhibition GI50
Method: as §1

HCT-15 = experiment: Cytotoxicity, SRB assay, HCT-15 (colon); details: Homo sapiens; HCT-15 (colon) cells; read-out: Growth inhibition GI50
Method: as §1

WSU-DLCL2 = experiment: Cytotoxicity, CellTiter-Glo assay, WSU-DLCL2 (DLBCL); details: Homo sapiens, WSUDLCL2; WSU-DLCL2 (diffuse large B cell lymphoma) cells; read-out: Growth inhibition GI50
Method: as §1

NUGC-3 = experiment: Cytotoxicity, SRB assay, NUGC-3 (stomach); details: Homo sapiens; NUGC-3 (stomach) cells; read-out: Growth inhibition GI50
Method: as §1

ACHN = experiment: Cytotoxicity, SRB assay, ACHN (renal); details: Homo sapiens; ACHN (renal) cells; read-out: Growth inhibition GI50
Method: as §1

MDA-MB-231 = experiment: Cytotoxicity, SRB assay, MDA-MB-231 (breast); details: Homo sapiens; MDA-MB-231 (breast) cells; read-out: Growth inhibition GI50
Method: as §1

U266 = experiment: Cytotoxicity, CellTiter-Glo assay, U266 (multiple myeloma); details: Homo sapiens, U-266; U266 (multiple myeloma) cells; read-out: Growth inhibition GI50
Method: as §1

RPMI-8402 = experiment: Cytotoxicity, CellTiter-Glo assay, RPMI-8402 (T-ALL); details: Homo sapiens; RPMI-8402 (T cell acute lymphocytic leukemia) cells; read-out: Growth inhibition GI50
Method: as §1

RPMI-1788 = experiment: Cytotoxicity, CellTiter-Glo assay, normal RPMI-1788 (B lymphocytes); details: RPMI-1788 (normal B lymphocytes) cell line; read-out: Growth inhibition GI50
Method: as §1

[1] = tested on: all the tested cell lines; experiment: Cytotoxicity against the whole panel (one normal, six solid, seven blood cancer cell lines); details: span over one normal, six solid and seven blood cancer cell lines; read-out: GI50 across all the tested cell lines
Method: as §1

solid cancer cells = experiment: Cytotoxicity against solid cancer cells (SRB assay); details: span over solid cancer cell lines
Method: as §1

Compound	GI50 (Raji) [µM]	GI50 (NALM6) [µM]	GI50 (PC-3) [µM]	GI50 (HL-60) [µM]	GI50 (NCI-H23) [µM]	GI50 (K562) [µM]	GI50 (HCT-15) [µM]	GI50 (WSU-DLCL2) [µM]	GI50 (NUGC-3) [µM]	GI50 (ACHN) [µM]	GI50 (MDA-MB-231) [µM]	GI50 (U266) [µM]	GI50 (RPMI-8402) [µM]	GI50 (RPMI-1788) [µM]	GI50 [1] [µM]	GI50 (solid cancer cells) [µM]
CC(=O)CC1OC(C(C)C(O)C(C)C(O)C(C)C=CC=C(C)C(N)=O)C(C)C1O (centres unmarked) [Compound 7, salinifuran A]	> 30	26.8	> 30	> 30	> 30	> 30	> 30	> 30	> 30	> 30	> 30	> 30	> 30			
CC(=CC1C(=O)OC(C(C)C(O)C(C)C(O)C(C)C=CC=C(C)C(=O)NC2=CC(=O)c3cc(O)c(C)c(O)c3C2=O)C(C)C1O)C(=O)O (centres unmarked) [Compound 1, salinisporamycin C]	5.37	4.28	8.46	9.96	8.05	7.17	9.25	2.36	7.41	8.45	8.79	2.63	4.75	8.47	2.36 to 9.96	
CC1=CC=CC(C)C(O)C(C)C(O)C(C)C(O)C(C)C(O)C=COC2(C)Oc3c(C)cc4c(O)c(cc(OC(=O)CO)c4c3C2=O)NC1=O (centres unmarked) [Compound 6, 8-deoxy-25-desacetyl-27-demethyl-rifamycin L]	12.1	4.76	26.6	4.79	21.8	9.53	24.2	5.4	29.8	> 30	> 30	2.3	2.45	4.93		21.8 to 29.8
C/C(=C/C=C/[C@H](C)[C@H](O)[C@@H](C)[C@@H](O)[C@@H](C)[C@@H]1O[C@@]2(C)CC[C@@H](O2)[C@H]1C)C(N)=O [Compound 8, saliniketal A]	> 30	> 30	> 30	> 30	> 30	> 30	> 30	> 30	> 30	> 30	> 30	> 30	> 30		> 30	
COc1cccc2c1C(=O)c1c(O)c3c(c(O)c1C2=O)C[C@@](O)(C(=O)CO)C[C@@H]3O[C@H]1C[C@H](N)[C@H](O)[C@H](C)O1 [Adr., Adriamycin, reference compound]	0.003	0.002	0.144	0.021	0.151	0.057	0.137	0.002	0.136	0.168	0.159	0.034	0.014	0.014		

Source: PMC10532523, “Rifamycin-Related Polyketides from a Marine-Derived Bacterium Salinispora arenicola and Their Cytotoxic Activity” (Marine Drugs, 2023)
